Results reported in EP4692083A1, “NOVEL AZABICYCLE DERIVATIVES AND PHARMACEUTICAL COMPOSITION FOR INHIBITING AUTOTAXIN, COMPRISING SAME” (Nextgen Bioscience Co., Ltd., priority 2023, dated 2024).

These molecules were tested against human Autotaxin protein (Homo sapiens, UniProt Q13822) (assay: Evaluation of the inhibitory activity against human Autotaxin protein (18:1 LysoPC substrate, choline assay kit, absorbance at 570 nm)). Conditions: at 500nM compound, 2 hours at 37 °C, read-out: Inhibition rate (%, at 500nM).
Type: biochemical
Procedure: Solutions of each synthesized compound (80 uM, 100% dimethyl sulfoxide) were sequentially diluted 5-fold with dimethyl sulfoxide to prepare 6 concentrations. Each concentration of the compound was diluted 2-fold with 1x test buffer (50 mM Tris-Cl (pH 8.0), 5 mM KCl, 1 mM CaCl2, 1 mM MgCl2, 140 mM NaCl, deionized water, 1 mg/mL BSA), and 1 uL (1.25% dimethylsulfoxide) of the diluted mixture was dispensed into each well of a 96-well clear round-bottom plate. 9 uL of 1x test buffer was added, and 20 uL of 240 nM human autotaxin protein (buffer: 50 mM Tris-HCl, pH 8.0, with 150 mM sodium chloride and 20% glycerol) was added. 10 uL of sonicated 360 uM 18:1 LysoPC (diluted with 1x assay buffer) was added. The reaction was performed for 2 hours in a shaking incubator at 37 °C, and a secondary reaction mixture (choline assay kit, KA1662) (65 uL of 1x assay buffer: 1 uL of choline oxidase: 1 uL of dye probe) was prepared. 60 uL of the secondary reaction mixture was added to the plate where the reaction was performed, and incubated for 30 minutes in a shaker. The absorbance value was measured at a wavelength of 570 nm using a SpectraMax iD3 microplate reader. The percentage inhibition activity value (% inhibition) was calculated by the formula: (1 - absorbance value test group / absorbance value control group) X 100.

Row | Structure (SMILES) | inhibition at 0.5 µM [%]
1 | Clc1cccc(CCNc2ncc(-c3nnc(N4C[C@@H]5[C@H](C4)[C@H]5c4cnn[nH]4)o3)cn2)c1 [Example 14, 5-(5-((1R,5S,6r)-6-(1H-1,2,3-Triazol-5-yl)-3-azabicyclo[3.1.0]hexan-3-yl)-1,3,4-oxadiazol-2-yl)-N-(3-chlorophenethyl)pyrimidin-2-amine] | 85.3
2 | Fc1ccc(CCNc2ncc(-c3nnc(N4C[C@@H]5[C@H](C4)[C@H]5c4cnn[nH]4)o3)cn2)cc1 [Example 13, 5-(5-((1R,5S,6r)-6-(1H-1,2,3-Triazol-5-yl)-3-azabicyclo[3.1.0]hexan-3-yl)-1,3,4-oxadiazol-2-yl)-N-(4-fluorophenethyl)pyrimidin-2-amine] | 86
3 | FC(F)(F)c1ccc(CCNc2ncc(-c3nnc(N4C[C@@H]5[C@H](C4)[C@H]5c4cnn[nH]4)o3)cn2)cc1 [Example 26, 5-(5-((1R,5S,6r)-6-(1H-1,2,3-Triazol-5-yl)-3-azabicyclo[3.1.0]hexan-3-yl)-1,3,4-oxadiazol-2-yl)-N-(4-(trifluoromethyl)phenethyl)pyrimidin-2-amine] | 98.4

The remaining lines, values ahead:

Row | inhibition at 0.5 µM [%] | Structure (SMILES)
4 | 93.7 | N#Cc1ccc(CCNc2ncc(-c3nnc(N4C[C@@H]5[C@H](C4)[C@H]5c4cnn[nH]4)o3)cn2)cc1 [Example 33, 4-(2-((5-(5-((1R,5S,6r)-6-(1H-1,2,3-Triazol-5-yl)-3-azabicyclo[3.1.0]hexan-3-yl)-1,3,4-oxadiazol-2-yl)pyrimidin-2-yl)amino)ethyl)benzonitrile]
5 | 96.8 | c1ccc2c(c1)CC[C@@H]2Nc1ncc(-c2nnc(N3C[C@@H]4[C@H](C3)[C@H]4c3cnn[nH]3)o2)cn1 [Example 35, 5-(5-((1R,5S,6S)-6-(1H-1,2,3-Triazol-5-yl)-3-azabicyclo[3.1.0]hexan-3-yl)-1,3,4-oxadiazol-2-yl)-N-((S)-2,3-dihydro-1H-inden-1-yl)pyrimidin-2-amine]
6 | 25.5 | O=C(CCCc1nnc(NC2Cc3ccccc3C2)s1)N1C[C@@H]2[C@H](C1)[C@H]2c1cnn[nH]1 [Example 38, 1-((1R,5S,6r)-6-(1H-1,2,3-Triazol-5-yl)-3-azabicyclo[3.1.0]hexan-3-yl)-4-(5-((2,3-dihydro-1H-inden-2-yl)amino)-1,3,4-thiadiazol-2-yl)butan-1-one]
